From ChEMBL document CHEMBL1133517, “Design, radiosynthesis, and biodistribution of a new potent and selective ligand for in vivo imaging of the adenosine A(2A) receptor system using positron emission tomography” (J Med Chem, 2000)

How the values were obtained:
[1] = organism: Rattus norvegicus; assay: Biodistribution in rat trachea after 5 min time interval; format: ADME, organism-based; conditions: in vivo
[2] = organism: Rattus norvegicus; assay: Biodistribution in rat trachea after 60 min time interval; format: ADME, organism-based; conditions: in vivo, 1 h
[3] = organism: Rattus norvegicus; assay: Biodistribution in rat pituitary after 60 min time interval; format: ADME, organism-based, Pituitary gland; conditions: in vivo, 1 h
[4] = organism: Rattus norvegicus; assay: Biodistribution in rat cerebellem after 30 min time interval; format: ADME, organism-based, Cerebellum; conditions: in vivo, 0.5 h
[5] = organism: Rattus norvegicus; assay: Biodistribution in rat liver after 5 min time interval; format: ADME, organism-based; conditions: in vivo
[6] = organism: Rattus norvegicus; assay: Biodistribution in rat anti-CTX after 90 min time interval; format: ADME, organism-based; conditions: in vivo, 1.5 h
[7] = organism: Rattus norvegicus; assay: Biodistribution in rat lung after 60 min time interval; format: ADME, organism-based; conditions: in vivo, 1 h
[8] = organism: Rattus norvegicus; assay: Biodistribution in rat intestine after 30 min time interval; format: ADME, organism-based; conditions: in vivo, 0.5 h
[9] = organism: Rattus norvegicus; assay: Biodistribution in rat hippocampus after 5 min time interval; format: ADME, organism-based; conditions: in vivo
[10] = organism: Rattus norvegicus; assay: Biodistribution in rat pituitary after 90 min time interval; format: ADME, organism-based; conditions: in vivo, 1.5 h
[11] = organism: Rattus norvegicus; assay: Biodistribution in rat thalamus after 60 min time interval; format: ADME, organism-based; conditions: in vivo, 1 h
[12] = organism: Rattus norvegicus; assay: Biodistribution in rat plasma after 90 min time interval; format: ADME, organism-based; conditions: in vivo, 1.5 h
[13] = organism: Rattus norvegicus; assay: Biodistribution in rat thalamus after 90 min time interval; format: ADME, organism-based; conditions: in vivo, 1.5 h
[14] = organism: Rattus norvegicus; assay: Biodistribution in rat pituitary after 5 min time interval; format: ADME, organism-based, Pituitary gland; conditions: in vivo
[15] = organism: Rattus norvegicus; assay: Biodistribution in rat pons after 90 min time interval; format: ADME, organism-based; conditions: in vivo, 1.5 h
[16] = organism: Rattus norvegicus; assay: Biodistribution in rat hypothalamus after 90 min time interval; format: ADME, organism-based; conditions: in vivo, 1.5 h
[17] = organism: Rattus norvegicus; assay: Biodistribution in rat post-CTX after 15 min time interval; format: ADME, organism-based; conditions: in vivo, 0.25 h
[18] = organism: Rattus norvegicus; assay: Biodistribution in rat post-CTX after 90 min time interval; format: ADME, organism-based; conditions: in vivo, 1.5 h
[19] = organism: Rattus norvegicus; assay: Biodistribution in rat hippocampus after 30 min time interval; format: ADME, organism-based; conditions: in vivo, 0.5 h
[20] = organism: Rattus norvegicus; assay: Biodistribution in rat blood after 90 min time interval; format: ADME, organism-based; conditions: in vivo, 1.5 h
[21] = organism: Rattus norvegicus; assay: Biodistribution in rat lung after 5 min time interval; format: ADME, organism-based; conditions: in vivo
[22] = organism: Rattus norvegicus; assay: Biodistribution in rat adrenal after 5 min time interval; format: ADME, organism-based; conditions: in vivo
[23] = organism: Rattus norvegicus; assay: Biodistribution in rat lung after 15 min time interval; format: ADME, organism-based; conditions: in vivo, 0.25 h
[24] = organism: Rattus norvegicus; assay: Biodistribution in rat thalamus after 15 min time interval; format: ADME, organism-based; conditions: in vivo, 0.25 h
[25] = organism: Rattus norvegicus; assay: Biodistribution in rat muscle after 15 min time interval; format: ADME, organism-based, Muscle tissue; conditions: in vivo, 0.25 h
[26] = organism: Rattus norvegicus; assay: Biodistribution in rat plasma after 60 min time interval; format: ADME, organism-based; conditions: in vivo, 1 h
[27] = organism: Rattus norvegicus; assay: Biodistribution in rat hippocampus after 90 min time interval; format: ADME, organism-based; conditions: in vivo, 1.5 h
[28] = organism: Rattus norvegicus; assay: Biodistribution in rat striatum after 30 min time interval; format: ADME, organism-based; conditions: in vivo, 0.5 h
[29] = organism: Rattus norvegicus; assay: Biodistribution in rat kidney after 60 min time interval; format: ADME, organism-based; conditions: in vivo, 1 h
[30] = organism: Rattus norvegicus; assay: Biodistribution in rat hippocampus after 60 min time interval; format: ADME, organism-based; conditions: in vivo, 1 h
[31] = organism: Rattus norvegicus; assay: Biodistribution in rat pituitary after 15 min time interval; format: ADME, organism-based, Pituitary gland; conditions: in vivo, 0.25 h
[32] = organism: Rattus norvegicus; assay: Biodistribution in rat liver after 60 min time interval; format: ADME, organism-based; conditions: in vivo, 1 h
[33] = organism: Rattus norvegicus; assay: Biodistribution in rat cerebellem after 5 min time interval; format: ADME, organism-based, Cerebellum; conditions: in vivo
[34] = organism: Rattus norvegicus; assay: Biodistribution in rat spleen after 5 min time interval; format: ADME, organism-based; conditions: in vivo
[35] = organism: Rattus norvegicus; assay: Biodistribution in rat trachea after 15 min time interval; format: ADME, organism-based; conditions: in vivo, 0.25 h
[36] = organism: Rattus norvegicus; assay: Biodistribution in rat adrenal after 30 min time interval; format: ADME, organism-based; conditions: in vivo, 0.5 h
[37] = organism: Rattus norvegicus; assay: Biodistribution in rat testes after 30 min time interval; format: ADME, organism-based, Testis; conditions: in vivo, 0.5 h
[38] = organism: Rattus norvegicus; assay: Biodistribution in rat testes after 90 min time interval; format: ADME, organism-based, Testis; conditions: in vivo, 1.5 h
[39] = organism: Rattus norvegicus; assay: Biodistribution in rat adrenal after 90 min time interval; format: ADME, organism-based; conditions: in vivo, 1.5 h
[40] = organism: Rattus norvegicus; assay: Biodistribution in rat spleen after 30 min time interval; format: ADME, organism-based; conditions: in vivo, 0.5 h
[41] = organism: Rattus norvegicus; assay: Biodistribution in rat liver after 90 min time interval; format: ADME, organism-based; conditions: in vivo, 1.5 h
[42] = organism: Rattus norvegicus; assay: Biodistribution in rat liver after 15 min time interval; format: ADME, organism-based; conditions: in vivo, 0.25 h
[43] = organism: Rattus norvegicus; assay: Biodistribution in rat muscle after 5 min time interval; format: ADME, organism-based, Muscle tissue; conditions: in vivo
[44] = organism: Rattus norvegicus; assay: Biodistribution in rat hypothalamus after 5 min time interval; format: ADME, organism-based; conditions: in vivo
[45] = organism: Rattus norvegicus; assay: Biodistribution in rat anti-CTX after 15 min time interval; format: ADME, organism-based; conditions: in vivo, 0.25 h
[46] = organism: Rattus norvegicus; assay: Biodistribution in rat kidney after 90 min time interval; format: ADME, organism-based; conditions: in vivo, 1.5 h
[47] = organism: Rattus norvegicus; assay: Biodistribution in rat striatum after 60 min time interval; format: ADME, organism-based; conditions: in vivo, 1 h
[48] = organism: Rattus norvegicus; assay: Biodistribution in rat lung after 90 min time interval; format: ADME, organism-based; conditions: in vivo, 1.5 h
[49] = organism: Rattus norvegicus; assay: Biodistribution in rat intestine after 15 min time interval; format: ADME, organism-based; conditions: in vivo, 0.25 h
[50] = organism: Rattus norvegicus; assay: Biodistribution in rat blood after 30 min time interval; format: ADME, organism-based; conditions: in vivo, 0.5 h

ID/g [1]: 0.17% | ID/g [2]: 0.04% | ID/g [3]: 0.02% | ID/g [4]: 0.05% | ID/g [5]: 0.94% | ID/g [6]: 0.02% | ID/g [7]: 0.37% | ID/g [8]: 0.25% | ID/g [9]: 0.17% | ID/g [10]: 0.03% | ID/g [11]: 0.02% | ID/g [12]: 0.07% | ID/g [13]: 0.02% | ID/g [14]: 0.18% | ID/g [15]: 0.02% | ID/g [16]: 0.02% | ID/g [17]: 0.1% | ID/g [18]: 0.02% | ID/g [19]: 0.04% | ID/g [20]: 0.05% | ID/g [21]: 0.38% | ID/g [22]: 0.85% | ID/g [23]: 0.52% | ID/g [24]: 0.1% | ID/g [25]: 0.11% | ID/g [26]: 0.07% | ID/g [27]: 0.02% | ID/g [28]: 0.2% | ID/g [29]: 0.13% | ID/g [30]: 0.02% | ID/g [31]: 0.06% | ID/g [32]: 0.36% | ID/g [33]: 0.19% | ID/g [34]: 0.18% | ID/g [35]: 0.12% | ID/g [36]: 0.25% | ID/g [37]: 0.23% | ID/g [38]: 0.03% | ID/g [39]: 0.14% | ID/g [40]: 0.07% | ID/g [41]: 0.37% | ID/g [42]: 0.74% | ID/g [43]: 0.15% | ID/g [44]: 0.16% | ID/g [45]: 0.12% | ID/g [46]: 0.11% | ID/g [47]: 0.06% | ID/g [48]: 0.23% | ID/g [49]: 0.28% | ID/g [50]: 0.06%
SMILES: [11CH3]Oc1ccc(CCCn2ncc3c2nc(N)n2nc(-c4ccco4)nc32)cc1
